Assays:
[1] = target: α1(Q242L/N408A/Y411F)β3 GABAAR (UniProt P28472+P62813, N434A/Q268L/Y437F); assay: Two-electrode voltage clamp in Xenopus laevis oocytes, intersubunit + α1 intrasubunit mutant; format: cell-based; parameters: expressed in transfected cells; host or cells: Xenopus laevis oocytes injected with cRNA; conditions: 3 μM 3α5αP, 1 mM GABA + 40 μM pentobarbital
Method: (§1) The wild-type and mutant α1β3 GABAAR were expressed in oocytes from the African clawed frog (Xenopus laevis). Frogs were purchased from Xenopus 1 (Dexter, MI), and housed and cared for in a Washington University Animal Care Facility under the supervision of the Washington University Division of Comparative Medicine. Harvesting of oocytes was conducted under the Guide for the Care and Use of Laboratory Animals as adopted and promulgated by the National Institutes of Health. The animal protocol (No. 20180191) was approved by the Animal Studies Committee of Washington University in St. Louis. The oocytes were injected with a total of 12 ng cRNA. The ratio of cRNAs was 5:1 ratio (α1:β3) to minimize the expression of β3 homomeric receptors. Following injection, the oocytes were incubated in ND96 (96 mM NaCl, 2 mM KCl, 1.8 mM CaCl2, 1 mM MgCl2, 5 mM HEPES; pH 7.4) with supplements (2.5 mM Na pyruvate, 100 U/ml penicillin, 100 μg/ml streptomycin and 50 μg/ml gentamycin) at 16°C for 2 days prior to conducting electrophysiological recordings. The electrophysiological recordings were conducted at room temperature using standard two-electrode voltage clamp. The oocytes were clamped at −60 mV. The chamber (RC-1Z, Warner Instruments, Hamden, CT) was perfused with ND96 at 5–8 ml/min. […] Current traces were analyzed with Clampfit (Molecular Devices). […]

[2] = target: T1, α1(Q242L)β3(Y284F) GABAAR (UniProt P28472+P62813, Q268L/Y309F); assay: Two-electrode voltage clamp in Xenopus laevis oocytes, intersubunit + β3 intrasubunit mutant; format: cell-based; conditions: 3 μM 3α5αP, 1 mM GABA + 40 μM pentobarbital
T1 construct: expressed in transfected cells; host or cells: Xenopus laevis oocytes injected with cRNA
Method: as §1

[3] = target: T2, α1(Q242L/N408A/Y411F)β3(Y284F) GABAAR (UniProt P28472+P62813, N434A/Q268L/Y309F/Y437F); assay: Two-electrode voltage clamp in Xenopus laevis oocytes, all three sites mutated; format: cell-based; conditions: 3 μM 3β5αP, 1 mM GABA + 25 μM pentobarbital
T2 construct: expressed in transfected cells; host or cells: Xenopus laevis oocytes injected with cRNA
Method: as §1

α1β3(Y284F) GABAAR = assay: Two-electrode voltage clamp in Xenopus laevis oocytes, Y284F mutant; format: cell-based; conditions: 3 μM 3β5αP, 1 mM GABA; α1β3(Y284F) vs WT
Method: as §1

[4] = target: T3, α1β3 GABAARs on intact HEK cell surfaces (Homo sapiens, UniProt P14867+P28472); assay: [3H]muscimol binding to intact HEK cells (cell surface vs total receptors); conditions: 10 μM KK148; 3 nM [3H]muscimol; intact vs permeabilized HEK cells
T3 construct: inserted between the fourth and fifth residues of the mature peptide; photolabeling full-length heteropentameric GABAARs in native membranes; expressed in transfected cells
T3 sequence (P14867 28-456): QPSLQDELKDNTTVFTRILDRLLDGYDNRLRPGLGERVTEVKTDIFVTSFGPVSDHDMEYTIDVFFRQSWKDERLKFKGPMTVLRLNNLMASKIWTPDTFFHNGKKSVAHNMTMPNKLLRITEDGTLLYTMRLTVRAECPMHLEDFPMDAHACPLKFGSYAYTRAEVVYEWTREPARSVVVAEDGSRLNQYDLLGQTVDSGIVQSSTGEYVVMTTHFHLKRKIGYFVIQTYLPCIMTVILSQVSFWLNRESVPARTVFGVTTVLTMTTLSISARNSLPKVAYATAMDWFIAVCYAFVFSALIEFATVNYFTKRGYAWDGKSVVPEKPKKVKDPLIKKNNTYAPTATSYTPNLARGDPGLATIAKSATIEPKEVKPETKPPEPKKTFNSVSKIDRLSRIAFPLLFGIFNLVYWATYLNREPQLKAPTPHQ
T3 sequence (P28472 26-473): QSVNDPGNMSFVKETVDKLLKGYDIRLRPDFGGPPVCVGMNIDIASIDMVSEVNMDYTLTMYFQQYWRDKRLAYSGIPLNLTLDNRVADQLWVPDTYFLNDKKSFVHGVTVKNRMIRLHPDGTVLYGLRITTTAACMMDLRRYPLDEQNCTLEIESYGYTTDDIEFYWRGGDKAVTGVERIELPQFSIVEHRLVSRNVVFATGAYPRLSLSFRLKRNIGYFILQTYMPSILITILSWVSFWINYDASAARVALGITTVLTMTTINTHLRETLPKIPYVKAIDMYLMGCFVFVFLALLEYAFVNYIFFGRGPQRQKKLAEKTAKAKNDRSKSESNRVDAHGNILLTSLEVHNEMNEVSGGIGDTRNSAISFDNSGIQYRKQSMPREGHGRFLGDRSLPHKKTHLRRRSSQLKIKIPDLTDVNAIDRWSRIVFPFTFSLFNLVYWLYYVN
Method: HEK cells were harvested by gently washing dishes with buffer containing 10 mM sodium phosphate (pH 7.5), 150 mM sodium chloride twice. The cells were collected by centrifugation at 500 g at 4°C for 5 min, and resuspended in isotonic (10 mM sodium phosphate, 150 mM sodium chloride, pH 7.5) or hypotonic (10 mM sodium phosphate, pH 7.5) buffer to prepare two different conditions for radioligand binding to intact cells [isotonic buffer for cell surface receptors; hypotonic buffer for total receptors (cell surface receptors + intracellular receptors)]. The cells were incubated on ice for 2 hr, after which the sodium chloride concentration was adjusted to be isotonic before the radioligand binding procedure. HEK cells were aliquoted to assay tubes (20 samples/150 mm dish) in a total volume of 1 ml, and incubated with 3 nM [^3H]muscimol ±10 μM KK148 for 1 hr on ice in the dark.

In the case of `CC(=O)[C@H]1CC[C@H]2[C@@H]3CC[C@H]4C[C@H](O)CC[C@]4(C)[C@H]3CC[C@]12C` [3α5αP, allopregnanolone], the “Effect on steady-state current” value [1] is reported as “significantly inhibited” and the “Inhibition of steady-state current, effect of β3 intrasubunit site mutation” value [2] is reported as “markedly reduced”.
`CC(=O)[C@H]1CC[C@H]2[C@@H]3CC[C@H]4C[C@@H](O)CC[C@]4(C)[C@H]3CC[C@]12C` [3β5αP, epi-allopregnanolone] was tested, and the “Desensitizing effect with combined mutations of all three binding sites” value [3] was “not completely eliminated” and the “Prevention of 3β5αP-enhanced desensitization by mutation” value (α1β3(Y284F) GABAAR) was ~ 67%.
`C#CCCO[C@H]1CC[C@H]2[C@@H]3CC[C@H]4CC5(CC[C@]4(C)[C@H]3CC[C@]12C)N=N5` [KK148] was tested, and the “Enhancement of specific [3H]muscimol binding in intact cells” value [4] was “enhanced”.

Reference: publication PMC7532004, “Site-specific effects of neurosteroids on GABAA receptor activation and desensitization” (eLife, 2020)
